Results published in ChEMBL document CHEMBL1201862, “PubChem BioAssay data set” (2004).
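Compound exposure: 48 hours, 5 concentrations, 96-well plates. At the GI50, growth is halved.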 Active and inactive are the calls of the source. No stated cut-off is given here; in the data, active = GI50 up to about 1.1 µM and inactive = higher.

Experiments:
Test in all cases: NCI anticancer screen, dose series, 48 h
[1] = tested on: RXF 631
[2] = tested on: DMS-114
[3] = tested on: DLD-1
[4] = tested on: M19-MEL
[5] = tested on: LXFL 529
[6] = tested on: DMS-273
[7] = tested on: XF498

Measured: GI50

Oc1cc(-c2cccs2)nc2cc3c(cc12)OCO3
inactive: [1] 28.2 µM | [2] 3.93 µM | [3] 5.13 µM | [4] 3.34 µM | [5] 4.79 µM | [6] 3.34 µM | [7] 3.54 µM

O=C(c1ccccc1)N1C2CCC1C(C(F)(F)F)=C2C(F)(F)F
inactive: [1] > 100 µM | [2] > 100 µM | [3] > 100 µM | [4] > 100 µM | [5] > 100 µM | [6] > 100 µM

COc1cc(C2=NN(C)C(c3ccc([N+](=O)[O-])o3)C2)cc(OC)c1OC (stereo not drawn)
inactive: [1] 51.5 µM | [2] 35.6 µM | [3] 48.4 µM | [4] 29.8 µM | [5] 38.5 µM | [6] > 100 µM

CC1=C(C(=O)Nc2ccc(C)cc2)C(c2cccc([N+](=O)[O-])c2)C(C(=O)Nc2ccc(C)cc2)=C(C)N1
inactive: [1] 17.2 µM | [2] 22.5 µM | [3] 31.6 µM | [4] 20.8 µM | [5] 27.7 µM | [6] 28.6 µM | [7] 17.8 µM

CC1=C(C(=O)Nc2ccc([N+](=O)[O-])cc2)C(c2ccccc2O)C(C(=O)Nc2ccc([N+](=O)[O-])cc2)=C(C)N1
inactive: [1] 15.4 µM | [2] 15.3 µM | [3] 18.5 µM | [4] 20.5 µM | [5] 19.1 µM | [6] 23.3 µM | [7] 13.6 µM

O=C1c2cnccc2Cc2cccc3c2N1c1ccccc1S3
inactive: [1] 26.1 µM | [2] 26.4 µM | [3] 29.2 µM | [4] 28.9 µM | [5] 27.5 µM | [6] 22.9 µM | [7] 15.1 µM

Cc1cc(N(CCC#N)CCC#N)ccc1/N=N/c1ccccc1[N+](=O)[O-]
inactive: [1] > 100 µM | [2] > 100 µM | [3] > 100 µM | [4] > 100 µM | [5] > 100 µM | [6] > 100 µM | [7] 26.8 µM

COc1c(OC(C)=O)cc2c(OC(C)=O)c1CC(C)CC(OC)C(O)C(C)/C=C(\C)C(OC(N)=O)C(OC)/C=C\C=C(/C)C(=O)N2 (stereo not drawn)
inactive: [1] > 100 µM | [2] > 64.7 µM | [3] > 49.8 µM | [4] > 76.4 µM | [5] 49 µM | [6] > 70.1 µM | [7] > 90.4 µM

O=C(O)/C(Cl)=C(\Cl)C(=O)Nc1ccccc1
inactive: [1] > 100 µM | [3] > 100 µM | [4] > 100 µM | [5] > 100 µM | [6] > 100 µM

COc1cc(C(=O)N2CCc3c([nH]c4c([N+](=O)[O-])c(OC)ccc34)C2C)cc(OC)c1OC (stereo not drawn)
inactive: [1] 79.6 µM | [2] > 100 µM | [3] > 100 µM | [5] > 100 µM | [6] > 100 µM

Cc1ccc(NC(=O)C2C(=O)N(c3ccc(C)c(C)c3)C(=O)/C2=N\NC(N)=S)cc1C (stereo not drawn)
inactive: [1] > 100 µM | [3] 79.6 µM | [4] > 100 µM | [5] > 100 µM | [6] > 100 µM | [7] 97.1 µM

COc1ccc(OC)c(NC(=O)CCC/C(CC(=O)c2ccc(O)c(OC)c2)=N\Nc2nnc(C)n2N)c1
inactive: [2] 95.7 µM | [3] > 100 µM | [4] > 100 µM | [5] > 100 µM | [6] > 100 µM | [7] > 100 µM

CC(C)(C)c1nc2c(o1)/C(=N\c1ccccc1)c1ccccc1C2=O
active: [4] 0.718 µM
inactive: [1] 22.5 µM | [3] 4.14 µM | [5] 5.48 µM | [6] 3.71 µM | [7] 3.68 µM

CCOCc1cc(=O)c2cc3c(cc2o1)OC(C)(C)CC3
inactive: [1] > 100 µM | [2] 62.7 µM | [3] > 100 µM | [4] > 100 µM | [5] 92.7 µM | [6] 48.5 µM | [7] > 100 µM

NCCNCc1c2ccccc2c(CNCCN)c2ccccc12
inactive: [1] 45.7 µM | [2] 11.6 µM | [3] 53.1 µM | [4] 14.8 µM | [5] 5.86 µM

NC(=O)C(=O)CC(=O)c1ccccc1NC1=CC(=O)C(=O)c2ccccc21
inactive: [1] > 100 µM | [2] 16.7 µM | [3] 42.3 µM | [4] 7.74 µM | [5] 50.6 µM | [6] 53.1 µM | [7] > 100 µM

CS(=O)(=O)OCCn1cnc2nc(NC(=O)c3ccccc3)[nH]c(=O)c21
inactive: [1] > 100 µM | [2] > 100 µM | [3] > 100 µM | [4] > 100 µM | [5] > 100 µM | [6] > 100 µM

Cc1ccc(Nc2nc(C)c(C(/C=C/c3ccc(/C=C/C(=N/NC(=O)C[n+]4ccccc4)c4sc(Nc5ccc(C)cc5[N+](=O)[O-])nc4C)cc3)=N\NC(=O)C[n+]3ccccc3)s2)c([N+](=O)[O-])c1
inactive: [1] > 100 µM | [2] 92.9 µM | [3] 71.3 µM | [4] > 100 µM | [5] 95.7 µM | [6] > 100 µM
